Laboratory results taken from US11365410B2, “Production and monitoring of metabolites in cells” (President and Fellows of Harvard College, priority 2015, dated 2022).

How the values were obtained:
[1] = target: T1, TtgR (Pseudomonas putida), regulator sequence SEQ ID NO: 14 (Pseudomonas putida, UniProt Q9AIU0); type: cell-based
T1 construct: expressed in transfected cells; host or cells: E. coli DH5alpha transformed with pJKR-H (high copy) or pJKR-L (low copy) plasmid
Experimental: (§1) DH5α cells transformed with pJKR plasmids and maintained with carbenicillin were used in the induction assays. For each induction evaluation experiment, the cells were grown overnight to saturation before being diluted 1:100 into fresh LB media and incubated at 200 RPM and 37° C. After four hours, 150 μl of the log-phase cells were transferred to 96-well plates and stock inducer was added to achieve the desired range of induction concentrations. Three separate wells were inoculated and independently supplemented with the appropriate amount of inducing chemical for each level of induction. Measurements were made on the same Biotek (Winooksi, Vt.) HT plate reader using the same settings: excitation 485/20, emission 528/20, 37° C. and fast shaking. Fluorescence and absorbance were measured every 10 minutes for 15 hours. Fluorescence was measured in arbitrary units (AFU) while optical density was determined by absorbance (OD). Normalized fluorescence was determined by dividing fluorescence by optical density for a given measurement. Five independent wells containing control strains, transformed with pUC19, were included to provide a measurement of background autofluorescence.

[2] = tested on: inducible promoter driving sfGFP in DH5α cells; test: Hill-function fit of maximum GFP expression rate to inducer concentration; type: cell-based, E. coli
Experimental: The GFP expression rate was calculated at each time-point with the formula ΔGFP/OD. Scipy was used to perform a non-linear least-squares fit of the maximum GFP expression rate to the corresponding inducer concentration using the Hill function
Vmax is the maximum rate of GFP expression, Vmin is basal rate of GFP expression, I is the concentration of inducer, h is the hill coefficient and KL is the lumped half-maximal parameter described in Results. The variance of each parameter was determined from the least-squares covariance matrix.
A model of gene activation is applied as described herein to relate promoter activity to inducer concentration. Promoter activity is defined as the time derivative of fluorescence corrected for cell growth. […] Gene expression rates were fit to a Hill function adapted to account for both the maximum velocity of gene expression and the basal expression of the uninduced cells.

[3] = tested on: muconate biosensor benM in BL21 cells; test: Real-time muconate monitoring from pathway intermediates with benM biosensor; type: cell-based, E. coli; details: strain with muconate biosynthesis pathway
Text: A cell was genetically modified to include the muconate biosensor benM regulating production of a fluorescent molecule, and a LysR-type transcriptional regulator derived from Acinetobacter baylyi (see Craven, S. H., Ezezika, O. C., Haddad, S., Hall, R. A., Momany, C. and Neidle, E. L. (2009) Inducer responses of BenM, a LysR-type transcriptional regulator from Acinetobacter baylyi ADP1. Mol Microbiol, 72, 881-894 hereby incorporated by reference in its entirety). This setup is analogous to the previously described muconate artificial selection in which benM controls expression of an antibiotic resistance gene (see Raman, S., Rogers, J. K., Taylor, N. D. and Church, G. M. (2014) Evolution-guided optimization of biosynthetic pathways. Proceedings of the National Academy of Sciences of the United States of America, 111, 17803-17808 hereby incorporated by reference in its entirety. In order to achieve various muconate production rates for real-time observation, muconate was produced from a range of precursor molecules by implementing the biosynthetic pathway developed by Draths and Frost (see Niu, W., Draths, K. M. and Frost, J. W. (2002) Benzene-free synthesis of adipic acid. Biotechnology progress, 18, 201-211 and Draths, K. M. and Frost, J. W. (1994) Environmentally Compatible Synthesis of Adipic Acid from D-Glucose. […]
Muconate production monitoring was carried out in BL21 cells doubly transformed with pJKR-H-benM and the muconate production plasmid. […] After four hours, 150 μl of the log-phase cells were transferred to 96-well plates and monitored in the plate reader. After one hour, the specified concentration of pathway intermediate was added in triplicate and fluorescence monitoring was resumed. […] The quantity of muconate in the supernatant was determined by HPLC. […]

[4] = target: T1, TtgR (Pseudomonas putida), regulator sequence SEQ ID NO: 14; details: no test described; cited from earlier work
[5] = tested on: TtgR biosensor; test: TtgR biosensor induction with phenol and related compounds; type: cell-based, E. coli; details: 0.1% phenol, 0.1% catechol, up to 0.4% benzene; fluorescence after 90 minutes
Experimental: All experiments were carried out in triplicate.
as §1

[6] = tested on: E. coli DH5α cells; test: Toxicity of inducer chemicals (growth)
Experimental: Growth rate was measured for each combination of chemical and concentration during the exponential phase of growth. Rates were normalized to the growth rate of cells without any added chemical and plotted as bar height. Concentration of each inducer is indicated in the table, corresponding to the bar chart by order and color. […] Inducer concentrations mirror the concentrations used in the induction experiments.
150 μl of cells were transferred into 96-well plates and the assayed chemical was immediately added in triplicate before further incubation at 600 RPM and 37° C.
Toxicity of the inducer chemicals was measured to help guide the choice of inducer concentration for biosensor applications. In applications where maximum protein production is the goal, toxicity will be less of a consideration. In contrast, sub-toxic induction is important for complex circuits that require the cell to maintain a healthy cell state.

[7] = tested on: acuR; test: acuR-based 3HP biosensor induction (indirect, via acrylate); type: cell-based, Rhodobacter sphaeroides; details: acrylate; no helper plasmid
Experimental: Metab Eng, 16, 130-139 hereby incorporated by reference in its entirety). All three reactions are useful for a prpR-based biosensor, but for the acuR-based biosensor, accumulation of acrylyl-CoA rather than propionyl-CoA is necessary. […] Accordingly, the domain responsible for conversion of acrylyl-CoA to propionyl-CoA was removed while preserving the activity of the other two domains. […] A 90-fold increase in fluorescence was obtained when the acuR-based biosensor was induced with 10 mM 3HP. […] Fluorescence remained at background levels for greater than 16 hours in the absence of pcs^Δ3 and ach (see FIG. 17).
Plasmids were constructed using Gibson isothermal assembly methods (see Gibson, D. G., Young, L., Chuang, R. Y., Venter, J. C., Hutchison, C. A., 3rd and Smith, H. O. (2009) Enzymatic assembly of DNA molecules up to several hundred kilobases. Nat Methods, 6, 343-345 hereby incorporated by reference in its entirety) and cloned into DH5α electrocompetent cells purchased from New England Biolabs. Biosynthesis of product molecules was carried out in either BL21 (DE3) or DH5α. The prpR-based 3HP biosensor was implemented as a two-plasmid system. The first plasmid is pPro24-GFP (Addgene plasmid #18880), which expresses GFPuv under the control of the methyl-citrate responsive transcription factor, prpR, on a pBR322 origin of replication providing β-lactam resistance. […]

[8] = target: T2, AcuR (Rhodobacter sphaeroides), regulator sequence SEQ ID NO: 9 (Cereibacter sphaeroides, UniProt Q3J6K8); test: AcuR biosensor induction (sfGFP reporter, Hill fit); type: cell-based; details: acrylate
T2 construct: expressed in transfected cells; host or cells: E. coli DH5alpha transformed with pJKR-H (high copy) or pJKR-L (low copy) plasmid
T2 sequence (Q3J6K8 1-219): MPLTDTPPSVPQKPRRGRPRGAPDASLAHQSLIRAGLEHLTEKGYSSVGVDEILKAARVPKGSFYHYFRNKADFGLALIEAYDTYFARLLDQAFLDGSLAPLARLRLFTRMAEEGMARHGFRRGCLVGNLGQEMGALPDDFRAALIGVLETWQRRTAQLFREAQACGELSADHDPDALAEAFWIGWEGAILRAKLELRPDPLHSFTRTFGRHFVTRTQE
Text: Plasmids were constructed using Gibson isothermal assembly methods (see Gibson, D. G., Young, L., Chuang, R. Y., Venter, J. C., Hutchison, C. A., 3rd and Smith, H. O. (2009) Enzymatic assembly of DNA molecules up to several hundred kilobases. Nat Methods, 6, 343-345 incorporated herein by reference in its entirety) and transformed into DH5α electrocompetent cells (New England Biolabs, Ipswich Mass.). […] Each inducible system was implemented on high and low copy plasmids. High copy pJKR-H plasmids were constructed with the pUC origin and beta lactamase antibiotic resistance marker derived from pUC19 (New England Biolabs, Ipswich Mass.). Low copy pJKR-L plasmids were constructed in the same way, except that the pUC origin was replaced by the SC101 origin (including repA) from pSC101 obtained from American Type Culture Collection (ATCC #37032). […] In both these plasmids the antibiotic resistance gene and origin of replication were replaced with p15a-aadA and colA-kanR. Each enzyme was cloned downstream of the constitutive promoter P2 (see Mutalik, V. K., Guimaraes, J. C., Cambray, G., Lam, C., Christoffersen, M. J., Mai, Q. A., Tran, A. B., Paull, M., Keasling, J. D., Arkin, A. P. et al. (2013) Precise and reliable gene expression via standard transcription and translation initiation elements. Nat Methods, 10, 354-360 hereby incorporated by reference in its entirety) and g10 RBS to create pJKR-MIOX variants. These expression plasmids used the colA origin of replication and kanamycin resistance gene for maintenance. Sequences and plasmids are available on Addgene (plasmid numbers 62557-62570).
DH5α cells transformed with pJKR plasmids and maintained with carbenicillin were used in the induction assays. For each induction evaluation experiment, the cells were grown overnight to saturation before being diluted 1:100 into fresh LB media and incubated at 200 RPM and 37° C. […] Measurements were made on the same Biotek (Winooksi, Vt.) HT plate reader using the same settings: excitation 485/20, emission 528/20, 37° C. and fast shaking. Fluorescence and absorbance were measured every 10 minutes for 15 hours. Fluorescence was measured in arbitrary units (AFU) while optical density was determined by absorbance (OD). Normalized fluorescence was determined by dividing fluorescence by optical density for a given measurement. […]
The ratio of fluorescence to absorbance at 600 nm was used in order to compensate for changes in cell density over time and between experiments (AFU/OD). […] This transfer function is plotted on a log-log scale in FIG. 1A and FIG. 1B to capture the wide range of inducer concentrations and resulting fluorescence values. […]

Q: Which “Activation of TtgR sensor” value ([1]; 0.1%, 90 min) does the source give for `Oc1ccccc1` [Phenol, phenol] here?
A: The value was “only phenol activated the sensor”.

Q: With `CC(C)c1ccc(C(=O)O)cc1` [Cumate, cumate] as the molecule, how does the “Activation of TtgR by cumate” value ([1]; cross-reactivity panel, 20 μM) read?
A: Its value is “not activated”.

Q: For AraC, which “Basal Expression Velocity” value ([2]; High copy number plasmid) is on record?
A: The value was 20 ± 50 s⁻¹.

Q: What about the “Basal Expression Velocity” value ([2]; Low copy number plasmid) of the same molecule?
A: The value was 40 ± 30 s⁻¹.

Q: For `O=C(O)c1ccc(O)c(O)c1` [protocatechuate], which “fluorescence response of muconate biosensor” value [3] is on record?
A: Its value is “rapid fluorescence response”.

Q: With `O=C(N[C@H](CO)[C@H](O)c1ccc([N+](=O)[O-])cc1)C(Cl)Cl` [Chloramphenicol, chloramphenicol] as the molecule, how does the “Activation of TtgR by chloramphenicol” value [4] read?
A: The value was “activation”.

Q: What does the source list for `Oc1ccccc1O` [catechol]?
A: fluorescent response of TtgR biosensor [5]: did not activate the sensor; fluorescence response of muconate biosensor [3]: rapid fluorescence response

Q: With `O=C(O)C1=CC(=O)[C@@H](O)[C@H](O)C1` [DHS, 3-dehydroshikimate] as the molecule, how does the “fluorescence response of muconate biosensor” value [3] read?
A: The value was “rapid fluorescence response”.

Q: With `C=CC(=O)O` [Acrylate, acrylate] as the molecule, how does the “Toxicity in induction experiment” value ([6]; 10 mM acrylate) read?
A: The value was “high toxicity”.

Q: And the Toxicity ([6]; acrylate 5 mM and 10 mM)?
A: The Toxicity was “substantial toxicity”.

Q: What about the “Response of acrylate biosensor without helper plasmid” value [7] of the same molecule?
A: The value was “respond to acrylate”.

Q: What about the “Hill Coefficient” value ([8]; high copy) of the same molecule?
A: The value was 3.2 ± 0.3.

Q: What about the “Max Expression Velocity” value ([8]; high copy) of the same molecule?
A: The value was 910 ± 40 s⁻¹.

Q: And the “Hill Coefficient” value ([8]; low copy)?
A: The value was 1.3 ± 0.1.

Q: What about the “Max Expression Velocity” value ([8]; low copy) of the same molecule?
A: The value was 150 ± 10 s⁻¹.
